Measurements from ChEMBL document CHEMBL1201862, “PubChem BioAssay data set” (2004).
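Method: 48-hour compound exposure of cells in 96-well plates, five concentrations, linear interpolation of endpoints. The concentration for 50% growth inhibition is given as GI50.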 Calls of active or inactive are those of the source. Cut-off read from the data, not from the text of the source: active = GI50 up to about 1.1 µM and inactive = higher.

Assays:
Experiment in all cases: NCI tumour cell line growth inhibition, 48 h
[1] = system: LOX IMVI
[2] = system: SK-MEL-28
[3] = system: OVCAR-3
[4] = system: SF-295
[5] = system: OVCAR-8
[6] = system: M14
[7] = system: UO-31
[8] = system: SF-268
[9] = system: HOP-62
[10] = system: HT-29
[11] = system: PC-3
[12] = system: HCT-116
[13] = system: SR
[14] = system: DU-145
[15] = system: UACC-257
[16] = system: HCC 2998
[17] = system: MCF7
[18] = system: Hs-578T
[19] = system: U-251
[20] = system: MDA-MB-435
[21] = system: HL-60
[22] = system: EKVX
[23] = system: UACC-62
[24] = system: SK-OV-3
[25] = system: IGROV-1
[26] = system: Malme-3M
[27] = system: T47D
[28] = system: NCI-H522
[29] = system: KM12
[30] = system: SNB-75
[31] = system: SN12C
[32] = system: MDA-MB-231
[33] = system: OVCAR-5
[34] = system: SK-MEL-2
[35] = system: OVCAR-4
[36] = system: TK-10
[37] = system: BT-549
[38] = system: K562
[39] = system: A549
[40] = system: NCI-H23
[41] = system: NCI/ADR-RES
[42] = system: RXF 393
[43] = system: SW-620
[44] = system: COLO 205
[45] = system: RPMI-8226
[46] = system: CCRF-CEM
[47] = system: SNB-19
[48] = system: ACHN
[49] = system: CAKI-1
[50] = system: HCT-15
[51] = system: NCI-H460
[52] = system: SK-MEL-5
[53] = system: MDA-N
[54] = system: NCI-H226
[55] = system: MOLT-4
[56] = system: 786-0
[57] = system: A498
[58] = system: SF-539

Compound: CCC1(CC)C(=O)N(C(=O)c2ccccc2)N(C(=O)c2ccc(Cl)cc2)C1=O
- GI50 [1]: 3.35 µM (inactive)
- GI50 [2]: > 75 µM (inactive)
- GI50 [3]: > 75 µM (inactive)
- GI50 [4]: > 75 µM (inactive)
- GI50 [5]: > 75 µM (inactive)
- GI50 [6]: > 75 µM (inactive)
- GI50 [7]: > 75 µM (inactive)
- GI50 [8]: > 75 µM (inactive)
- GI50 [9]: > 75 µM (inactive)
- GI50 [10]: 58.6 µM (inactive)
- GI50 [11]: > 75 µM (inactive)
- GI50 [12]: 43.9 µM (inactive)
- GI50 [13]: 16.5 µM (inactive)
- GI50 [14]: > 75 µM (inactive)
- GI50 [15]: > 75 µM (inactive)
- GI50 [16]: > 75 µM (inactive)
- GI50 [17]: > 75 µM (inactive)
- GI50 [18]: > 75 µM (inactive)
- GI50 [19]: 59.3 µM (inactive)
- GI50 [20]: > 75 µM (inactive)
- GI50 [21]: 22 µM (inactive)
- GI50 [22]: > 75 µM (inactive)
- GI50 [23]: > 75 µM (inactive)
- GI50 [24]: > 75 µM (inactive)
- GI50 [25]: > 75 µM (inactive)
- GI50 [26]: > 75 µM (inactive)
- GI50 [27]: > 75 µM (inactive)
- GI50 [28]: 25.4 µM (inactive)
- GI50 [29]: > 75 µM (inactive)
- GI50 [30]: > 75 µM (inactive)
- GI50 [31]: > 75 µM (inactive)
- GI50 [32]: > 75 µM (inactive)
- GI50 [33]: > 75 µM (inactive)
- GI50 [34]: > 75 µM (inactive)
- GI50 [35]: > 75 µM (inactive)
- GI50 [36]: > 75 µM (inactive)
- GI50 [37]: > 75 µM (inactive)
- GI50 [38]: 32.9 µM (inactive)
- GI50 [39]: > 75 µM (inactive)
- GI50 [40]: > 75 µM (inactive)
- GI50 [41]: > 75 µM (inactive)
- GI50 [42]: > 75 µM (inactive)
- GI50 [43]: 36.2 µM (inactive)
- GI50 [44]: > 75 µM (inactive)
- GI50 [45]: 20 µM (inactive)
- GI50 [46]: 12.7 µM (inactive)
- GI50 [47]: > 75 µM (inactive)
- GI50 [48]: > 75 µM (inactive)
- GI50 [49]: > 75 µM (inactive)
- GI50 [50]: 72.3 µM
- GI50 [51]: 36.6 µM (inactive)
- GI50 [52]: > 75 µM (inactive)
- GI50 [53]: > 75 µM (inactive)
- GI50 [54]: > 75 µM (inactive)
- GI50 [55]: 17 µM (inactive)
- GI50 [56]: > 75 µM (inactive)

Compound: COc1ccc2c(c1)/C(=C\c1c(C)nc3sc(C)cn13)C(=O)N2
- GI50 [1]: 1.87 µM (inactive)
- GI50 [2]: 54.6 µM (inactive)
- GI50 [3]: 0.297 µM (active)
- GI50 [4]: 0.309 µM (active)
- GI50 [5]: 2.94 µM (inactive)
- GI50 [6]: 0.75 µM (active)
- GI50 [7]: 3.92 µM (inactive)
- GI50 [8]: 2.35 µM (inactive)
- GI50 [9]: 1.53 µM (inactive)
- GI50 [10]: 0.363 µM (active)
- GI50 [11]: 0.385 µM (active)
- GI50 [12]: 0.498 µM (active)
- GI50 [13]: 0.409 µM (active)
- GI50 [14]: 4.83 µM (inactive)
- GI50 [15]: 1.41 µM (inactive)
- GI50 [16]: 0.337 µM (active)
- GI50 [17]: 0.332 µM (active)
- GI50 [18]: 1.22 µM (inactive)
- GI50 [19]: 0.217 µM (active)
- GI50 [20]: 0.106 µM (active)
- GI50 [21]: 0.292 µM (active)
- GI50 [22]: 3.24 µM (inactive)
- GI50 [23]: 0.274 µM (active)
- GI50 [24]: 1.64 µM (inactive)
- GI50 [57]: 0.531 µM (active)
- GI50 [25]: 0.755 µM (active)
- GI50 [26]: 0.172 µM (active)
- GI50 [27]: 9.89 µM (inactive)
- GI50 [28]: 0.175 µM (active)
- GI50 [29]: 0.327 µM (active)
- GI50 [58]: 0.204 µM (active)
- GI50 [31]: 8.49 µM (inactive)
- GI50 [32]: 0.855 µM (active)
- GI50 [33]: 3.24 µM (inactive)
- GI50 [34]: 0.263 µM (active)
- GI50 [35]: 12.7 µM (inactive)
- GI50 [36]: 3.18 µM (inactive)
- GI50 [37]: 1.66 µM (inactive)
- GI50 [38]: 0.446 µM (active)
- GI50 [39]: 1.36 µM (inactive)
- GI50 [40]: 2.31 µM (inactive)
- GI50 [41]: 1.36 µM (inactive)
- GI50 [42]: 1.64 µM (inactive)
- GI50 [43]: 0.687 µM (active)
- GI50 [44]: 0.14 µM (active)
- GI50 [45]: 0.581 µM (active)
- GI50 [46]: 0.455 µM (active)
- GI50 [47]: 3.33 µM (inactive)
- GI50 [48]: 3.83 µM (inactive)
- GI50 [49]: 2.13 µM (inactive)
- GI50 [50]: 0.49 µM
- GI50 [51]: 0.205 µM (active)
- GI50 [52]: 0.206 µM (active)
- GI50 [53]: 0.124 µM (active)
- GI50 [54]: 0.841 µM (active)
- GI50 [55]: 0.778 µM (active)
- GI50 [56]: 2.32 µM (inactive)

Compound: O=C1c2cc3c(cc2CC1Cc1ccc2c(c1)CCC2)CCC3 (centres undefined)
- GI50 [1]: 66.1 µM (inactive)
- GI50 [2]: > 100 µM (inactive)
- GI50 [3]: 63.4 µM (inactive)
- GI50 [4]: 23.5 µM (inactive)
- GI50 [5]: 81.7 µM (inactive)
- GI50 [6]: > 100 µM (inactive)
- GI50 [7]: > 100 µM (inactive)
- GI50 [8]: 35.6 µM (inactive)
- GI50 [9]: 72.4 µM (inactive)
- GI50 [10]: 40 µM (inactive)
- GI50 [11]: 72.9 µM (inactive)
- GI50 [12]: 38.6 µM (inactive)
- GI50 [13]: 29.9 µM (inactive)
- GI50 [14]: 54 µM (inactive)
- GI50 [15]: 87.7 µM (inactive)
- GI50 [16]: 36.7 µM (inactive)
- GI50 [17]: 93.1 µM (inactive)
- GI50 [18]: 32.4 µM (inactive)
- GI50 [19]: 37.3 µM (inactive)
- GI50 [20]: 76 µM (inactive)
- GI50 [21]: 66.2 µM (inactive)
- GI50 [22]: > 100 µM (inactive)
- GI50 [23]: 52 µM (inactive)
- GI50 [24]: 85.1 µM (inactive)
- GI50 [57]: 32.3 µM (inactive)
- GI50 [25]: 31.6 µM (inactive)
- GI50 [26]: 79.6 µM (inactive)
- GI50 [27]: 10.9 µM (inactive)
- GI50 [28]: 24.1 µM (inactive)
- GI50 [29]: > 100 µM (inactive)
- GI50 [58]: 33.3 µM (inactive)
- GI50 [30]: 13.4 µM (inactive)
- GI50 [31]: 41.4 µM (inactive)
- GI50 [32]: 26.4 µM (inactive)
- GI50 [33]: > 100 µM (inactive)
- GI50 [34]: 48.8 µM (inactive)
- GI50 [35]: 82.6 µM (inactive)
- GI50 [36]: > 100 µM (inactive)
- GI50 [37]: 81.3 µM (inactive)
- GI50 [38]: 69.5 µM (inactive)
- GI50 [39]: 64.4 µM (inactive)
- GI50 [40]: 44.7 µM (inactive)
- GI50 [41]: 65.3 µM (inactive)
- GI50 [42]: 57.7 µM (inactive)
- GI50 [43]: 45.5 µM (inactive)
- GI50 [44]: 25 µM (inactive)
- GI50 [45]: 40.5 µM (inactive)
- GI50 [46]: 44.6 µM (inactive)
- GI50 [47]: 34.3 µM (inactive)
- GI50 [48]: 48.4 µM (inactive)
- GI50 [50]: 47.5 µM
- GI50 [51]: 34.4 µM (inactive)
- GI50 [52]: 57.8 µM (inactive)
- GI50 [53]: 51.4 µM (inactive)
- GI50 [54]: 24.2 µM (inactive)
- GI50 [55]: 36.6 µM (inactive)
